Measurements published in US8183264B2, “Pyridine derivative substituted by heteroaryl ring, and antifungal agent comprising the same” (Eisai R&D Managment Co., Ltd., priority 2006, dated 2012).
Converted amounts (≈) assume the structure as drawn.

What was measured:
[1] = system: C. albicans CAF2-1 strain; test: Anti-Candida activity (MIC measurement); type: cell-based; details: CAF21STRAIN, minimum inhibitory concentration (MIC) by visual inspection, RPMI 1640, 42 to 48 hours at 35° C.
Description: (§1) 1. Anti-Candida Activity and Anti-Aspergillus Activity
(§2) (1) Preparation of Fungal Sample
(§3) For the C. albicans CAF2-1 strain, a fungal suspension from a standing culture for 48 hours at 30° C. in a Sabouraud dextrose liquid culture medium (SDB) was diluted with RPMI 1640 medium to adjust a fungal suspension of 1.2×10^3 cells/mL. For the A. fumigatus Tsukuba strain, −80° C. stored strain was diluted with RPMI 1640 medium to adjust to a fungal suspension of 4.5×10^3 cells/mL.
(§4) (2) Preparation of an Agent Dilution Plate
(§5) Using a U-bottomed 96-well plate, 8 samples/plate (A to H) of sample dilution solutions were prepared. On the 2nd to 12th rows were dispensed 10 μL of dimethyl sulfoxide solution. Weighed sample was dissolved in dimethyl sulfoxide to prepare a 2.5 mg/mL solution, 20 μL of this solution was added to the first row of the prepared plate, and 12 steps of two-fold step dilutions (10 μL of solution+10 μL of dimethyl sulfoxide solution) were performed on the plate. This sample dilution solution was dispensed in an amount of 1 μL into a flat-bottomed 96-well plate for MIC measurement to prepare a sample dilution plate.
(§6) (3) Inoculation of Fungal Suspension and Culture
(§7) The fungal suspension prepared in (1) was used in an amount of 99 μL/well to inoculate the flat-bottomed 96-well plate containing 1 μL/well of the test compound dilution prepared in (2), and standing culture was performed aerobically for 42 to 48 hours at 35° C.
(§8) The following representative compounds prepared in the examples were measured for anti-Candida activity and anti-Aspergillus activity by measurement method in (1).

[2] = system: A. fumigatus Tsukuba strain; test: Anti-Aspergillus activity (MIC measurement); type: cell-based; details: minimum inhibitory concentration (MIC) by visual inspection, RPMI 1640, 42 to 48 hours at 35° C.
Description: as §1, §2, §3, §4, §5, §6, §7, §8

Row | Compound | MIC [1] | MIC [2]
1 | Nc1ncccc1-c1cn(Cc2ccc(OCc3ccccc3)cc2)nn1 [Example 1, 3-(1-(4-Benzyloxy-benzyl)-1H-[1,2,3]triazol-4-yl)-pyridin-2-ylamine] | 0.05 µg/mL (≈ 0.14 µM) | 0.2 µg/mL (≈ 0.56 µM)
2 | Cc1ccc(-c2cn(Cc3ccc(OCc4ccccc4)cc3)nn2)cn1 [Example 2, 5-(1-(4-Benzyloxy-benzyl)-1H-[1,2,3]triazol-4-yl)-2-methyl-pyridine] | 3.13 µg/mL (≈ 8.78 µM) | 1.56 µg/mL (≈ 4.38 µM)
3 | Nc1ccc(-c2cn(Cc3ccc(OCc4ccccc4)cc3)nn2)cn1 [Example 3, 5-(1-(4-Benzyloxy-benzyl)-1H-[1,2,3]triazol-4-yl)-pyridin-2-ylamine] | 1.56 µg/mL (≈ 4.36 µM) | 0.78 µg/mL (≈ 2.18 µM)
4 | Nc1ccc(-c2cn(Cc3ccc(OCc4ccccc4)cc3)nn2)c(N)n1 [Example 4, 3-(1-(4-Benzyloxy-benzyl)-1H-[1,2,3]triazol-4-yl)-pyridin-2,6-diamine] | 0.39 µg/mL (≈ 1.05 µM) | 0.78 µg/mL (≈ 2.09 µM)
5 | COCc1ccc(-c2nnn(Cc3ccc(OCc4ccccc4)cc3)n2)c(N)n1 [Example 6, 3-(2-(4-Benzyloxy-benzyl)-2H-tetrazol-5-yl)-6-methoxymethyl-pyridin-2-ylamine] | 1.56 µg/mL (≈ 3.88 µM) | 1.56 µg/mL (≈ 3.88 µM)
6 | Nc1ccc(-c2nnn(Cc3ccc(OCc4ccccc4)cc3)n2)c(N)n1 [Example 7, 3-(2-(4-Benzyloxy-benzyl)-2H-tetrazol-5-yl)-pyridin-2,6-diamine] | 0.39 µg/mL (≈ 1.04 µM) | 1.56 µg/mL (≈ 4.18 µM)
7 | Nc1ncccc1-c1nnc(Cc2ccc(OCc3ccccc3)cc2)s1 [Example 8] | 0.78 µg/mL (≈ 2.08 µM) | 1.56 µg/mL (≈ 4.17 µM)
8 | Nc1ccc(-c2nnc(Cc3ccc(OCc4ccccc4)cc3)s2)c(N)n1 [Example 10] | 3.13 µg/mL (≈ 8.04 µM) | 25 µg/mL (≈ 64.2 µM)
9 | COCc1ccc(-c2nnc(Cc3ccc(OCc4ccccc4)cc3)o2)c(N)n1 [Example 11] | 6.25 µg/mL (≈ 15.5 µM) | 3.13 µg/mL (≈ 7.78 µM)
10 | Nc1ncccc1-n1cc(Cc2ccc(OCc3ccccc3)cc2)nn1 [Example 12, 3-(4-(4-Benzyloxy-benzyl)-[1,2,3]triazol-1-yl)-pyridin-2-ylamine] | 0.2 µg/mL (≈ 0.56 µM) | 0.2 µg/mL (≈ 0.56 µM)
11 | Nc1ncccc1-c1noc(Cc2ccc(OCc3ccccc3)cc2)n1 [Example 13, 3-(5-(4-Benzyloxy-benzyl)-[1,2,4]-oxadiazol-3-yl)-pyridin-2-ylamine] | 1.56 µg/mL (≈ 4.35 µM) | 1.56 µg/mL (≈ 4.35 µM)
12 | Nc1ncccc1-c1ncn(Cc2ccc(OCc3ccccc3)cc2)n1 [Example 14, 3-(1-(4-Benzyloxy-benzyl)-1H-[1,2,4]triazol-3-yl)-pyridin-2-ylamine] | 6.25 µg/mL (≈ 17.5 µM) | > 25 µg/mL
13 | Nc1ncccc1-c1nnc(Cc2ccc(OCc3ccccc3)cc2)[nH]1 [Example 15, 3-(5-(4-Benzyloxy-benzyl)-4H-[1,2,4]triazol-3-yl)-pyridin-2-ylamine] | 6.25 µg/mL (≈ 17.5 µM) | 3.13 µg/mL (≈ 8.76 µM)
14 | Nc1ncccc1-c1cn(Cc2ccc(Cc3ccc(Cl)o3)cc2)nn1 [Example 16, 3-(1-(4-(5-Chloro-furan-2-ylmethyl)-benzene)-1H-[1,2,3]triazol-4-yl)-pyridin-2-ylamine] | 0.05 µg/mL (≈ 0.137 µM) | 0.78 µg/mL (≈ 2.13 µM)
15 | Cc1ccc(-c2cn(Cc3ccc(Cc4ccc(Cl)o4)cc3)nn2)cn1 [Example 17, 5-(1-(4-(5-Chloro-furan-2-ylmethyl)-benzyl)-1H-[1,2,3]triazol-4-yl)-2-methyl-pyridine] | 3.13 µg/mL (≈ 8.58 µM) | 0.78 µg/mL (≈ 2.14 µM)
16 | COCc1ccc(-c2cn(Cc3ccc(Cc4ccc(Cl)o4)cc3)nn2)c(N)n1 [Example 19, 3-(1-(4-(5-Chloro-furan-2-ylmethyl)-benzyl)-1H-[1,2,3]triazol-4-yl)-6-methoxymethyl-pyridin-2-ylamine] | 0.39 µg/mL (≈ 0.952 µM) | 3.13 µg/mL (≈ 7.64 µM)
17 | Nc1ncccc1-c1nnn(Cc2ccc(Cc3ccc(Cl)o3)cc2)n1 [Example 21, 3-(2-(4-(5-Chloro-furan-2-ylmethyl)-benzyl)-2H-tetrazol-5-yl)-pyridin-2-ylamine] | 0.39 µg/mL (≈ 1.06 µM) | 0.39 µg/mL (≈ 1.06 µM)
18 | Nc1ccc(-c2nnn(Cc3ccc(Cc4ccc(Cl)o4)cc3)n2)c(N)n1 [Example 22, 3-(2-(4-(5-Chloro-furan-2-ylmethyl)-benzyl)-2H-tetrazol-5-yl)-pyridin-2,6-diamine] | 0.39 µg/mL (≈ 1.02 µM) | 1.56 µg/mL (≈ 4.09 µM)

Row | Compound | MIC [1] | MIC [2]
19 | Nc1ncccc1-c1noc(Cc2ccc(OCc3ccccn3)cc2)n1 [Example 23] | 1.56 µg/mL (≈ 4.34 µM) | 6.25 µg/mL (≈ 17.4 µM)
20 | Nc1ncccc1-c1nnc(Cc2ccc(OCc3ccccn3)cc2)o1 [Example 24] | 1.56 µg/mL (≈ 4.34 µM) | 6.25 µg/mL (≈ 17.4 µM)
21 | Nc1ncccc1-c1cn(Cc2ccc(COc3ccccn3)cc2)nn1 [Example 26, 3-(1-(4-(Pyridin-2-yloxymethyl)-benzyl)-1H-[1,2,3]triazol-4-yl)-pyridin-2-ylamine] | 0.05 µg/mL (≈ 0.14 µM) | 0.39 µg/mL (≈ 1.09 µM)
22 | Nc1ncccc1-c1cn(Cc2cccc(Oc3ccccc3)c2)nn1 [Example 28, 3-(1-(3-Phenoxy-benzyl)-1H-[1,2,3]triazol-4-yl)-pyridin-2-ylamine] | 0.1 µg/mL (≈ 0.291 µM) | 1.56 µg/mL (≈ 4.54 µM)
23 | Nc1ccc(-c2cn(Cc3cccc(Oc4ccccc4)c3)nn2)cn1 [Example 29, 5-(1-(3-Phenoxy-benzyl)-1H-[1,2,3]triazol-4-yl)-pyridin-2-ylamine] | 0.39 µg/mL (≈ 1.14 µM) | 1.56 µg/mL (≈ 4.54 µM)
24 | Nc1ncccc1-c1nnn(Cc2cccc(Oc3ccccc3)c2)n1 [Example 31, 3-(2-(3-Phenoxy-benzyl)-2H-tetrazol-5-yl)-pyridin-2-ylamine] | 0.39 µg/mL (≈ 1.13 µM) | 0.78 µg/mL (≈ 2.26 µM)
25 | Nc1ncccc1-c1cn(Cc2ccc(Oc3ccccc3)cc2)nn1 [Example 32, 3-(1-(4-Phenoxy-benzyl)-1H-[1,2,3]triazol-4-yl)-pyridin-2-ylamine] | 0.1 µg/mL (≈ 0.291 µM) | 0.39 µg/mL (≈ 1.14 µM)
26 | Nc1ncccc1-c1nnn(Cc2ccc(Oc3ccccc3)cc2)n1 [Example 35, 3-(2-(4-Phenoxy-benzyl)-2H-tetrazol-5-yl)-pyridin-2-ylamine] | 1.56 µg/mL (≈ 4.53 µM) | 0.78 µg/mL (≈ 2.26 µM)
27 | Nc1ncccc1-c1cn(Cc2ccc(COc3ccccc3)cn2)nn1 [Example 37, 3-(1-(5-Phenoxymethyl-pyridin-2-ylmethyl)-1H-[1,2,3]triazol-4-yl)-pyridin-2-ylamine] | 0.2 µg/mL (≈ 0.558 µM) | 1.56 µg/mL (≈ 4.35 µM)
28 | Nc1ccc(-c2nnn(Cc3ccc(OCc4ccccc4)cn3)n2)c(N)n1 [Example 40, 3-(2-(5-Benzyloxy-pyridin-2-ylmethyl)-2H-tetrazol-5-yl)-pyridin-2,6-diamine] | 1.56 µg/mL (≈ 4.17 µM) | > 25 µg/mL
29 | CCCCOc1ccc(Cc2nnc(-c3cccnc3N)o2)cc1 [Example 45, 3-(5-(4-Butoxy-benzyl)-[1,3,4]oxadiazol-2-yl)-pyridin-2-ylamine] | 6.25 µg/mL (≈ 19.3 µM) | 12.5 µg/mL (≈ 38.5 µM)
30 | Nc1ncccc1-c1nnn(Cc2ccc(Oc3ccccc3)s2)n1 [Example 46, 3-(2-(5-Phenoxy-thiophen-2-ylmethyl)-2H-tetrazol-5-yl)-pyridin-2-ylamine] | 0.39 µg/mL (≈ 1.11 µM) | 1.56 µg/mL (≈ 4.45 µM)
31 | Nc1ncccc1-c1nnn(Cc2ccc(OCc3ccccc3)s2)n1 [Example 48, 3-(2-(5-Benzyloxy-thiophen-2-ylmethyl)-2H-tetrazol-5-yl)-pyridin-2-ylamine] | 0.39 µg/mL (≈ 1.07 µM) | 1.56 µg/mL (≈ 4.28 µM)
32 | Nc1ncccc1-c1nnn(Cc2ccccc2)n1 [Example 49, 3-(2-Benzyl-2H-tetrazol-5-yl)-pyridin-2-ylamine] | 1.56 µg/mL (≈ 6.18 µM) | 12.5 µg/mL (≈ 49.5 µM)
33 | CCOc1ccc(Cn2nnc(-c3cccnc3N)n2)cc1 [Example 50, 3-(2-(4-Ethoxy-benzyl)-2H-tetrazol-5-yl)-pyridin-2-ylamine] | 6.25 µg/mL (≈ 21.1 µM) | > 25 µg/mL
34 | Nc1ncccc1-c1nnn(Cc2ccc(Oc3ccc(F)cc3)o2)n1 [Example 51, 3-(2-(5-(4-Fluoro-phenoxy)-furan-2-ylmethyl)-2H-tetrazol-5-yl)-pyridin-2-ylamine] | 6.25 µg/mL (≈ 17.7 µM) | 3.13 µg/mL (≈ 8.88 µM)
35 | Cc1ccc(Cc2cccc(Cn3nnc(-c4cccnc4N)n3)c2)s1 [Example 52, 3-(2-(3-(5-Methyl-thiophen-2-ylmethyl)-benzyl)-2H-tetrazol-5-yl)-pyridin-2-ylamine] | 1.56 µg/mL (≈ 4.3 µM) | 3.13 µg/mL (≈ 8.64 µM)
36 | Nc1ncccc1-c1nnn(Cc2ccn(Cc3ccccc3)c2)n1 [Example 55, 3-(2-(1-Benzyl-1H-pyrrol-3-ylmethyl)-2H-tetrazol-5-yl)-pyridin-2-ylamine] | 0.1 µg/mL (≈ 0.302 µM) | 0.78 µg/mL (≈ 2.35 µM)
